Experiments:
Assay in all cases: Kinase selectivity profile, 33P-ATP filter-binding assay
Format in all cases: biochemical
[1] = target: BRSK2 (Homo sapiens, UniProt Q8IWQ3)
How it was run: (§1)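 95-kinase panel; compound 10 µM; 33P-ATP filter-binding readout; data = % residual kinase activity.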

[2] = target: CDK2-Cyclin A (Homo sapiens, UniProt P24941)
How it was run: as §1

[3] = target: EPH A2 (Homo sapiens, UniProt P29317)
How it was run: as §1

[4] = target: ERK1 (Homo sapiens, UniProt P27361)
How it was run: as §1

[5] = target: JNK2 (Homo sapiens, UniProt P45984)
How it was run: as §1

[6] = target: MLK3 (Homo sapiens, UniProt Q16584)
Sequence of MLK3 (Q16584 whole entry): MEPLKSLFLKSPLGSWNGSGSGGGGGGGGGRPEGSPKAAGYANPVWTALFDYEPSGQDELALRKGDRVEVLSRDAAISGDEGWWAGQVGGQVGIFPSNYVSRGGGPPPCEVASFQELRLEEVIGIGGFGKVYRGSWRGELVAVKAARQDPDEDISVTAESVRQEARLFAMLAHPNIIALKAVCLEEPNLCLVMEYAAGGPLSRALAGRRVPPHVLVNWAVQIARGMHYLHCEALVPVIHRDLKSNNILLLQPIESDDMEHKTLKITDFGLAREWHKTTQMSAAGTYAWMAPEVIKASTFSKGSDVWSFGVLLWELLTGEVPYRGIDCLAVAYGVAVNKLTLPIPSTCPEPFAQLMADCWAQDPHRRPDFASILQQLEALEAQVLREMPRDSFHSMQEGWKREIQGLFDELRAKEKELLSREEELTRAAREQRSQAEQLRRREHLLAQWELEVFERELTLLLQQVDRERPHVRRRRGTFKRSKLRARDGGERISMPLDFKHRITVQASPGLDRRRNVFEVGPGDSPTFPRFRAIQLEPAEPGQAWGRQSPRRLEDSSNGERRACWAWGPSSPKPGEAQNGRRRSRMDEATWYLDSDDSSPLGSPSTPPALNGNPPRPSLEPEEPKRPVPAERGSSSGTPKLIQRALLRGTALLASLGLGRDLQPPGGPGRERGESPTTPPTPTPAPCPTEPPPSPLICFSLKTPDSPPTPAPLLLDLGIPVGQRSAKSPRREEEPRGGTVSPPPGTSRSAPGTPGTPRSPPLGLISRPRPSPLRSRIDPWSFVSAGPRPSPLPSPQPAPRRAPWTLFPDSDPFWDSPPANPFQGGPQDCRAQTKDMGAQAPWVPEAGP
How it was run: as §1

[7] = target: MST2 (Homo sapiens, UniProt Q13188)
Sequence of MST2 (Q13188 whole entry): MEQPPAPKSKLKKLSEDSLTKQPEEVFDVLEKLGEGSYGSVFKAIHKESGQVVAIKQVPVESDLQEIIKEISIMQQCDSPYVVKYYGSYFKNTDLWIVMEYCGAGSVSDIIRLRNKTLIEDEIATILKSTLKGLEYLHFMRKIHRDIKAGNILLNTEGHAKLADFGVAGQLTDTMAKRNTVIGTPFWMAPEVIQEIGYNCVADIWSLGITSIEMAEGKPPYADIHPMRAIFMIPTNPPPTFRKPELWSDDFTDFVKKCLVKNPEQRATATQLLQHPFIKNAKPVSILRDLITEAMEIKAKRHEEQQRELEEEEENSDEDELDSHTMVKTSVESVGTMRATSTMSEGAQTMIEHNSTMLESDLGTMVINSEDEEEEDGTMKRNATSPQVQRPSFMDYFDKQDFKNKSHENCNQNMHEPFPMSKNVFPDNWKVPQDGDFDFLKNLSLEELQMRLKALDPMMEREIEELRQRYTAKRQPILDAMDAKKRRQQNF
How it was run: as §1

[8] = target: PAK2 (Homo sapiens, UniProt Q13177)
How it was run: as §1

[9] = target: PKCα (Homo sapiens, UniProt P17252)
How it was run: as §1

[10] = target: ROCK 2 (Rattus norvegicus, UniProt Q62868)
Sequence of ROCK 2 (Q62868 2-543 limits assumed): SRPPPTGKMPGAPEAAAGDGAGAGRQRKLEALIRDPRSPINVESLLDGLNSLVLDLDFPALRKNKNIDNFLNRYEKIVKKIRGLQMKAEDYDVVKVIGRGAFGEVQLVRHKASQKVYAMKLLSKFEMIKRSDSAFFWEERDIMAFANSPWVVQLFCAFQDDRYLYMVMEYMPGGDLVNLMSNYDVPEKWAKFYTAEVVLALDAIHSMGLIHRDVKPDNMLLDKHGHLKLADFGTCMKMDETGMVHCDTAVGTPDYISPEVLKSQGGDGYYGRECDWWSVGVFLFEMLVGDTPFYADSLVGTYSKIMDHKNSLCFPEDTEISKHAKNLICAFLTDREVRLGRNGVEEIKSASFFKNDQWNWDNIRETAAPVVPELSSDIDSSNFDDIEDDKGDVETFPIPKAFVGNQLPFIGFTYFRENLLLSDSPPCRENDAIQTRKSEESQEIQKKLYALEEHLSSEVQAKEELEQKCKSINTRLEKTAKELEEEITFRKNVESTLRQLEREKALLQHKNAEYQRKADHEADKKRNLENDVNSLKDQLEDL
How it was run: as §1

[11] = target: SmMLCK (Homo sapiens, UniProt Q15746)
Sequence of SmMLCK (Q15746 923-1914): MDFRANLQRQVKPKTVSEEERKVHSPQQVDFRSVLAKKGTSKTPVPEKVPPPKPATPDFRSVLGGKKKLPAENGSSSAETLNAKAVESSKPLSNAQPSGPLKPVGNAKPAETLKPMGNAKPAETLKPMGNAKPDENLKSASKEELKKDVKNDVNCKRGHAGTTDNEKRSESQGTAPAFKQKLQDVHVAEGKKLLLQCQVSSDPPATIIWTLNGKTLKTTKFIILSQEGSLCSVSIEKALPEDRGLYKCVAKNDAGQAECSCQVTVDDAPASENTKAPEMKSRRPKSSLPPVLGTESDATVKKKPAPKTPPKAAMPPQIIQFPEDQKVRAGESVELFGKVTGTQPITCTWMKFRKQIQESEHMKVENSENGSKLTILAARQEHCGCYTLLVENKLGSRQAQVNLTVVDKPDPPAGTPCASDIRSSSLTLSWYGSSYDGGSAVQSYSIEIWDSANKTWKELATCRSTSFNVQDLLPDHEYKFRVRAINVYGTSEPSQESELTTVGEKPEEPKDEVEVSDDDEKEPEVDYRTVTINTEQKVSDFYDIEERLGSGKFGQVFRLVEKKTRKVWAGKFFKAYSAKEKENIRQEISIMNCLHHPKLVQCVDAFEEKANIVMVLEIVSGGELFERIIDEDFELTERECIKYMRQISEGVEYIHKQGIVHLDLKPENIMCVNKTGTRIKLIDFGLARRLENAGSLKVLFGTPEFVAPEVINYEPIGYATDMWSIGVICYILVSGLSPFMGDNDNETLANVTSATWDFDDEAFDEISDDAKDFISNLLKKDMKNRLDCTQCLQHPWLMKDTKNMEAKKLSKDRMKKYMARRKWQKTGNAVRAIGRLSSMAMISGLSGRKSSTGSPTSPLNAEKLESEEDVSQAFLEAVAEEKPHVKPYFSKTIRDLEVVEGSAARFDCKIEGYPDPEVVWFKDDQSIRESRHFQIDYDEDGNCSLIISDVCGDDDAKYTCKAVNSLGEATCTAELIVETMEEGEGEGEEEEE
How it was run: as §1

[12] = target: VEG-FR (Homo sapiens, UniProt P17948)
Sequence of VEG-FR (P17948 27-1338): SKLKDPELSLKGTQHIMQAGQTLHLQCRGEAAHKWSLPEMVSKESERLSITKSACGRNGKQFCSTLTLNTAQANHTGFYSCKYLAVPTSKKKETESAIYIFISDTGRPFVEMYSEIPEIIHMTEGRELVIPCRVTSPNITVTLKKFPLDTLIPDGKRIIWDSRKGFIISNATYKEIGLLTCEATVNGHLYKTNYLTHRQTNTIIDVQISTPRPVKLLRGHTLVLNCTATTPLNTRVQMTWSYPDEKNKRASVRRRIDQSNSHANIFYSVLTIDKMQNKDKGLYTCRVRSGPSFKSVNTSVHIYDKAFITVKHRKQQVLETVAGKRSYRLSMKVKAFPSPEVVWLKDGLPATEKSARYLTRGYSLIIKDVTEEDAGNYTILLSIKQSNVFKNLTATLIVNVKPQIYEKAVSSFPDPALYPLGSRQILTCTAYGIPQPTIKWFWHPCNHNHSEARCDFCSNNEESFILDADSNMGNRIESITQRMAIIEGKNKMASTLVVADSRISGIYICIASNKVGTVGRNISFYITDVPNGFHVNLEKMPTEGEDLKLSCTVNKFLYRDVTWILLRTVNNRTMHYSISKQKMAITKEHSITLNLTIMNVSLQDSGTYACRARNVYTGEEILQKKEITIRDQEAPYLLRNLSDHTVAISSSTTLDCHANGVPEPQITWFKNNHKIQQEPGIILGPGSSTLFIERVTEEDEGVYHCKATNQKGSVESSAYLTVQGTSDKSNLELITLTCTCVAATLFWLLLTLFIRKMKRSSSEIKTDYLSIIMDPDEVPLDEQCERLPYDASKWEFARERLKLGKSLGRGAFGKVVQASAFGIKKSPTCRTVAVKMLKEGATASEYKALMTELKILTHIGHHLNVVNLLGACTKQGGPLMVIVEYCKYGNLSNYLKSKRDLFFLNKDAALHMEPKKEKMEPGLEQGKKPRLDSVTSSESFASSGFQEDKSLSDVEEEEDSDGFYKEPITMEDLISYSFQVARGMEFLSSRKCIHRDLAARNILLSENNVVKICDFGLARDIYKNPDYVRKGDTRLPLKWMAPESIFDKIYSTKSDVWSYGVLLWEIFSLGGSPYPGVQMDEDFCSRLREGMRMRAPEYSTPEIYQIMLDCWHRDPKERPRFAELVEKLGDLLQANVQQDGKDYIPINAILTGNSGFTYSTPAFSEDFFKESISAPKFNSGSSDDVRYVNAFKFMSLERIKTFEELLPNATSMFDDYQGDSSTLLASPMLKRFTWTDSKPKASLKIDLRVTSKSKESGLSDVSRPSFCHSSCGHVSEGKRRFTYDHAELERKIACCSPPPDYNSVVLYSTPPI
How it was run: as §1

SMILES: Nc1ccc2c(NC3CC3)nc(-c3ccccc3)nc2c1 [1b, N^4-Cyclopropyl-2-phenyl-4,7-quinazolinediamine]
- remaining activity at 10 µM [1]: 92%
- remaining activity at 10 µM [2]: 94%
- remaining activity at 10 µM [3]: 85%
- remaining activity at 10 µM [4]: 99%
- remaining activity at 10 µM [5]: 101%
- remaining activity at 10 µM [6]: 98%
- remaining activity at 10 µM [7]: 87%
- remaining activity at 10 µM [8]: 90%
- remaining activity at 10 µM [9]: 96%
- remaining activity at 10 µM [10]: 109%
- remaining activity at 10 µM [11]: 83%
- remaining activity at 10 µM [12]: 95%
